Reference: US20250282799A1, “SUBSTITUTED PYRIDO[4,3-d]PYRIMIDINES AS KRAS MODULATORS” (Alterome Therapeutics, Inc., priority 2023, published 2025)

Each compound was assayed on KRAS G12V dependent lung adenocarcinoma cell line, NCI-H441 (assay: Cellular pERK (Thr202/Tyr204) FRET/HTRF assay). Settings: Homo sapiens, NCI-H441, cellular pERK (Thr202/Tyr204) HTRF, NCI-H441 cells.
Assay type: cell-based
How it was run: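 NCI-H441 cells (KRAS G12V) were seeded and grown overnight at 37 °C, 5% CO2, then treated with compound in DMSO for 1 hr. Lysates were probed with a Eu3+-cryptate/d2 antibody sandwich against pERK1/2 Thr202/Tyr204 and read by HTRF at 665 nm; IC50 from curve fitting.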

`[2H]C([2H])(F)Oc1c(F)c(F)cc2cncc(-c3ncc4c(N5CCOC[C@H]6[C@H](F)[C@H]65)nc(OC([2H])([2H])[C@@]56CCCN5C[C@H](F)C6)nc4c3F)c12` [Example 135, (1S,7S,8S)-2-(7-(6,7-difluoro-5-(fluoromethoxy-d2)isoquinolin-4-yl)-8-fluoro-2-(((2R,7aS)-2-fluorotetrahydro-1H-pyrrolizin-7a(5H)-yl)methoxy-d2)pyrido[4,3-d]pyrimidin-4-yl)-8-fluoro-5-oxa-2-azabicyclo[5.1.0]octane] and `[2H]C([2H])(Oc1nc(N2CCOC[C@H]3[C@H](F)[C@H]32)c2cnc(-c3cncc4ccc(F)c(OCF)c34)c(F)c2n1)[C@@]12CCCN1C[C@H](F)C2` [Example 126, (1S,7S,8S)-8-Fluoro-2-(8-fluoro-7-(6-fluoro-5-(fluoromethoxy)isoquinolin-4-yl)-2-(((2R,7aS)-2-fluorotetrahydro-1H-pyrrolizin-7a(5H)-yl)methoxy-d2)pyrido[4,3-d]pyrimidin-4-yl)-5-oxa-2-azabicyclo[5.1.0]octane] cannot be ordered by IC50: under 50 nM for the first, under 50 nM for the second.

Compared with `[2H]C([2H])(Oc1nc(N2CCOC[C@H]3[C@H](F)[C@H]32)c2cnc(-c3c(F)c(N)cc(C)c3C(F)(F)F)c(F)c2n1)[C@@]12CCCN1C[C@H](F)C2` [Example 271, 2-fluoro-3-(8-fluoro-4-((1S,7S,8S)-8-fluoro-5-oxa-2-azabicyclo[5.1.0]octan-2-yl)-2-(((2R,7aS)-2-fluorotetrahydro-1H-pyrrolizin-7a(5H)-yl)methoxy-d2)pyrido[4,3-d]pyrimidin-7-yl)-5-methyl-4-(trifluoromethyl)aniline], `[2H]C([2H])(Oc1nc(N2CCOC[C@H]3[C@H](F)[C@H]32)c2cnc(-c3cc(N)cc4ccc(F)c(CC)c34)c(F)c2n1)[C@@]12CCCN1C[C@H](F)C2` [Example 201, 5-ethyl-6-fluoro-4-(8-fluoro-4-((1S,7S,8S)-8-fluoro-5-oxa-2-azabicyclo[5.1.0]octan-2-yl)-2-(((2R,7aS)-2-fluorotetrahydro-1H-pyrrolizin-7a(5H)-yl)methoxy-d2)pyrido[4,3-d]pyrimidin-7-yl)naphthalen-2-amine] is lower in IC50: 50 to 500 nM for the first, under 50 nM for the second.

`[2H]C([2H])(F)Oc1c(F)ccc2cccc(-c3ncc4c(N5CCOC[C@H]6[C@H](F)[C@H]65)nc(OC[C@@]56CCCN5CC(=C)C6)nc4c3F)c12` [Example 145, (1S,7S,8S)-8-fluoro-2-(8-fluoro-7-(7-fluoro-8-(fluoromethoxy-d2)naphthalen-1-yl)-2-(((S)-2-methylenetetrahydro-1H-pyrrolizin-7a(5H)-yl)methoxy)pyrido[4,3-d]pyrimidin-4-yl)-5-oxa-2-azabicyclo[5.1.0]octane] and `[2H]C([2H])(F)Oc1c(F)ccc2cccc(-c3ncc4c(N5CCOC[C@H]6[C@H](F)[C@H]65)nc(OC[C@]56C/C(=C\F)CN5CCC65CC5)nc4c3F)c12` [Example 385, (1S,7S,8S)-8-fluoro-2-(8-fluoro-7-(7-fluoro-8-(fluoromethoxy-d2)naphthalen-1-yl)-2-(((R,E)-6′-(fluoromethylene)tetrahydrospiro[cyclopropane-1,1′-pyrrolizin]-7a′(5′H)-yl)methoxy)pyrido[4,3-d]pyrimidin-4-yl)-5-oxa-2-azabicyclo[5.1.0]octane] cannot be ordered by IC50: under 50 nM for the first, under 50 nM for the second.

`[2H]C([2H])(Oc1nc(N2CC[C@@H](C#N)C[C@H]3[C@H](F)[C@H]32)c2cnc(-c3cc(N)cc4ccc(F)c(C#C)c34)c(F)c2n1)[C@@]12CCCN1C[C@H](F)C2` [Example 304, (1S,5S,7R,8S)-2-(7-(3-amino-8-ethynyl-7-fluoronaphthalen-1-yl)-8-fluoro-2-(((2R,7aS)-2-fluorotetrahydro-1H-pyrrolizin-7a(5H)-yl)methoxy-d2)pyrido[4,3-d]pyrimidin-4-yl)-8-fluoro-2-azabicyclo[5.1.0]octane-5-carbonitrile] and `[2H]C([2H])(Oc1nc(N2CCOC[C@H]3[C@H](F)[C@H]32)c2cnc(-c3cc(N)cc4ccc(F)c(C#C)c34)c(F)c2n1)C12CCCN1CCC2` [Example 213, 5-ethynyl-6-fluoro-4-(8-fluoro-4-((1S,7S,8S)-8-fluoro-5-oxa-2-azabicyclo[5.1.0]octan-2-yl)-2-((tetrahydro-1H-pyrrolizin-7a(5H)-yl)methoxy-d2)pyrido[4,3-d]pyrimidin-7-yl)naphthalen-2-amine] cannot be ordered by IC50: under 50 nM for the first, under 50 nM for the second.

First: [2H]C([2H])([2H])Oc1c(F)c(F)c(F)c2cc(N)cc(-c3ncc4c(N5CCOC[C@H]6[C@H](F)[C@H]65)nc(OC[C@@]56CCCN5CC(=C(F)F)C6)nc4c3F)c12 [Example 142, 4-(2-(((S)-2-(difluoromethylene)tetrahydro-1H-pyrrolizin-7a(5H)-yl)methoxy)-8-fluoro-4-((1S,7S,8S)-8-fluoro-5-oxa-2-azabicyclo[5.1.0]octan-2-yl)pyrido[4,3-d]pyrimidin-7-yl)-6,7,8-trifluoro-5-(methoxy-d3)naphthalen-2-amine]
Second: Nc1cc(Cl)c(C(F)(F)F)c(-c2ncc3c(N4CCCC[C@@H]5[C@@H](F)[C@@H]54)nc(OC[C@@]45CCCN4CC(=C(F)F)C5)nc3c2F)c1 [Example 370, 3-chloro-5-(2-(((S)-2-(difluoromethylene)tetrahydro-1H-pyrrolizin-7a(5H)-yl)methoxy)-8-fluoro-4-((1R,7S,8R)-8-fluoro-2-azabicyclo[5.1.0]octan-2-yl)pyrido[4,3-d]pyrimidin-7-yl)-4-(trifluoromethyl)aniline]
The IC50 of the first is lower: under 50 nM for the first, 500 to 10000 nM for the second.

`C#Cc1c(F)ccc2cc(N)cc(-c3ncc4c(N5CCOC[C@H]6[C@H](F)[C@H]65)nc(OC[C@@]56CCCN5C(C)(C)[C@H](F)C6)nc4c3F)c12` [Example 262, 5-ethynyl-6-fluoro-4-(8-fluoro-2-(((2R,7aS)-2-fluoro-3,3-dimethyltetrahydro-1H-pyrrolizin-7a(5H)-yl)methoxy)-4-((1S,7S,8S)-8-fluoro-5-oxa-2-azabicyclo[5.1.0]octan-2-yl)pyrido[4,3-d]pyrimidin-7-yl)naphthalen-2-amine] and `[2H]C([2H])(F)Oc1c(F)ccc2cc(N)cc(-c3ncc4c(N5CCOC[C@H]6[C@H](F)[C@H]65)nc(OC[C@]56C/C(=C\F)CN5CCC65CC5)nc4c3F)c12` [Example 388, 6-fluoro-4-(8-fluoro-4-((1S,7S,8S)-8-fluoro-5-oxa-2-azabicyclo[5.1.0]octan-2-yl)-2-(((R,E)-6′-(fluoromethylene)tetrahydrospiro[cyclopropane-1,1′-pyrrolizin]-7a′(5′H)-yl)methoxy)pyrido[4,3-d]pyrimidin-7-yl)-5-(fluoromethoxy-d2)naphthalen-2-amine] cannot be ordered by IC50: under 50 nM for the first, under 50 nM for the second.

Same assay, conditions: Homo sapiens, NCI-H441, cellular pERK HTRF, NCI-H441 (KRAS G12V) cells

In the case of `[2H]C([2H])(Oc1nc(N2CCOC[C@H]3[C@H](F)[C@H]32)c2cc(C(F)(F)F)c(-c3cccc4sc(N)c(C#N)c34)c(F)c2n1)[C@@]12CCCN1C[C@H](F)C2` (atropisomer, axis not shown; (aS)) [Example 466, 2-amino-4-((S)-8-fluoro-4-((1S,7S,8S)-8-fluoro-5-oxa-2-azabicyclo[5.1.0]octan-2-yl)-2-(((2R,7aS)-2-fluorotetrahydro-1H-pyrrolizin-7a(5H)-yl)methoxy-d2)-6-(trifluoromethyl)quinazolin-7-yl)benzo[b]thiophene-3-carbonitrile], the IC50 is reported as under 50 nM.

Same assay, conditions: Homo sapiens, NCI-H441, pERK HTRF, NCI-H441 cells (KRAS G12V)

Compared with `[2H]C([2H])(Oc1nc(N2CCCCC[C@H]3C[C@H]32)c2cnc(-c3cc(N)cc4cc(F)c(F)c(C#C)c34)c(F)c2n1)[C@@]12CCCN1C[C@H](F)C2` [Example 56, 4-(4-((1R,8S)-2-azabicyclo[6.1.0]nonan-2-yl)-8-fluoro-2-(((2R,7aS)-2-fluorotetrahydro-1H-pyrrolizin-7a(5H)-yl)methoxy-d2)pyrido[4,3-d]pyrimidin-7-yl)-5-ethynyl-6,7-difluoronaphthalen-2-amine], `[2H]C([2H])(Oc1nc(N2CCCO[C@@H]3[C@@H](F)[C@@H]32)c2cnc(-c3cc(N)cc4cc(F)c(F)c(C#C)c34)c(F)c2n1)[C@@]12CCCN1C[C@H](F)C2` [Example 23, 5-Ethynyl-6,7-difluoro-4-(8-fluoro-4-((1S,7R,8S)-8-fluoro-2-oxa-6-azabicyclo[5.1.0]octan-6-yl)-2-(((2R,7aS)-2-fluorotetrahydro-1H-pyrrolizin-7a(5H)-yl)methoxy-d2)pyrido[4,3-d]pyrimidin-7-yl)naphthalen-2-amine] is higher in IC50: under 50 nM for the first, 500 to 10000 nM for the second. The first is the more potent here.

`C#Cc1c(F)ccc2cc(O)cc(-c3ncc4c(N5CCCCC6C5C6(F)F)nc(OC[C@@]56CCCN5C[C@H](F)C6)nc4c3F)c12` (stereo partly drawn) [Example 6, 4-(4-(8,8-Difluoro-2-azabicyclo[5.1.0]octan-2-yl)-8-fluoro-2-(((2R,7aS)-2-fluorotetrahydro-1H-pyrrolizin-7a(5H)-yl)methoxy)pyrido[4,3-d]pyrimidin-7-yl)-5-ethynyl-6-fluoronaphthalen-2-ol] and `[2H]C([2H])(Oc1nc(N2CCO[C@H]3[C@H](F)[C@H]32)c2cnc(-c3cc(N)cc4cc(F)c(F)c(C#C)c34)c(F)c2n1)[C@@]12CCCN1C[C@H](F)C2` [Example 38, 5-Ethynyl-6,7-difluoro-4-(8-fluoro-4-((1R,6S,7R)-7-fluoro-2-oxa-5-azabicyclo[4.1.0]heptan-5-yl)-2-(((2R,7aS)-2-fluorotetrahydro-1H-pyrrolizin-7a(5H)-yl)methoxy-d2)pyrido[4,3-d]pyrimidin-7-yl)naphthalen-2-amine] cannot be ordered by IC50: under 50 nM for the first, under 50 nM for the second.

Same assay, conditions: cellular pERK (Thr202/Tyr204) HTRF, NCI-H441 cells

With `[2H]C([2H])(Oc1nc(N2CCOC[C@H]3[C@H](F)[C@H]32)c2cc(C#N)c(-c3ccc(F)c4sc(N)c(C#N)c34)c(F)c2n1)[C@@]12CCCN1C[C@H](F)C2` (atropisomer, axis not shown; (aS)) [Example 349, (S)-7-(2-amino-3-cyano-7-fluorobenzo[b]thiophen-4-yl)-8-fluoro-4-((1S,7S,8S)-8-fluoro-5-oxa-2-azabicyclo[5.1.0]octan-2-yl)-2-(((2R,7aS)-2-fluorotetrahydro-1H-pyrrolizin-7a(5H)-yl)methoxy-d2)quinazoline-6-carbonitrile] the IC50 was under 50 nM.
